Key:
neutrophils = experiment: Phagocytosis assay in neutrophils (flow cytometry); assay type: cell-based, human
Protocol: To determine whether the reciprocal was true, namely, that TLR activation could inhibit phagocytosis of ICs, the uptake of RNase-treated RNP-ICs was analyzed in presence of the TLR7/8 agonist, R848. […] Specifically, neutrophils were stimulated with R848 prior to incubation with RNase-treated RNP-ICs, HAGG, beads or zymosan. The results are expressed as phagocytosis as compared to no R848 added (% of control). […] Finally, to determine if TLR7/8 activation affected the internalization process and/or the binding ability of the ICs, neutrophils were treated with the cytoskeleton inhibitor Cytochalasin B prior to adding the ICs, thus blocking uptake, but not binding. Specifically, neutrophils, treated with or without R848 followed by cytochalasin B (CytoB, 5 μM), were analyzed for binding and uptake of RNP-ICs by flow cytometry.
SLE IgG, SmRNP and heat-aggregated IgG (HAGG) were labeled with Alexa-647 according to manufacturer's protocol (Life Technologies). Neutrophils, or PBMCs, from healthy individual were stimulated with different ICs, FITC-conjugated latex beads or zymosan (100 μg/mL, Life Technologies) for 30 minutes at 37° C. and immediately analyzed for phagocytosis. In blocking experiments, neutrophils were incubated with 0.1 μM TLR7-9 or control iODN (Enzo Life Sciences), CMK (25 μM, Enzo Life Sciences), cytochalasin B (5 M, Sigma) or antibodies directed against CD16, CD32 or CD64 (all used at 10 μg/mL, BioLegend) for 30 minutes before addition of stimuli. In some experiments, R848, at a concentration of 2 μg/mL, or neutrophil supernatant, was added 30 and 90 minutes before addition of the phagocytic stimuli, respectively.

ncf1 (p47 phox) = experiment: p47 phox (ncf1) S345 phosphorylation, phosphoproteomics and Western blot; assay type: cell-based, human; settings: R848 activation
Protocol: Another target of TLR7/8 stimulation was ncf1 (p47 phox). Ncf1 was phosphorylated at S345, a known target site involved in activation of the NADPH oxidase complex. […] The experiment was repeated three times; combined results were compared using paired t test (P=0.044). Neutrophils were incubated with R848 in the absence or presence of the PI3K inhibitor Ly294002 and analyzed for pS345 or total levels of p47 phox using Western Blot. The experiment was repeated four times; combined results were compared using paired t test (No stim, P=0.03; R848+LY294002, P=0.0011). […] Briefly, neutrophils were treated with inhibitors of NADPH oxidase prior to addition of R848 and analyzed for cell surface expression of FcgRIIA by flow cytometry. […] Briefly, neutrophils from healthy individuals (HV, n=18) and CGD patients (n=4) were stimulated with R848 and analyzed for FcgRIIA levels by flow cytometry. The data were analyzed using paired t test (HC, P<0.0001) and unpaired t test (HC vs CGD, P=0.0097). Neutrophils from healthy individuals (HV, n=13) and CGD patients (n=3) were activated by R848 and analyzed for CD66b expression by flow cytometry using paired t test (HC, P<0.0001; CGD, P=0.039). […] Briefly, neutrophils were activated with LPS or PAM3CSK4 in presence of DPI and analyzed for FcgRIIA levels by flow cytometry. […]

[1] = neutrophils stimulated with R848 before stimuli, vs no R848

`CCOCc1nc2c(N)nc3ccccc3c2n1CC(C)(C)O` [R848] was tested, and the “uptake of RNase-treated RNP-ICs and HAGG by neutrophils” value (neutrophils; [1]) was “significantly decreased uptake of ICs as well as heat-aggregated IgG (HAGG)”, the “uptake of beads and zymosan by neutrophils” value (neutrophils; [1]) was “increased uptake of beads and zymosan” and the “binding and uptake of RNP-ICs by neutrophils” value (neutrophils; with or without R848, followed by cytochalasin B 5 μM) was “suppressed both IC-mediated binding and subsequent phagocytosis”. The “phosphorylation of ncf1 (p47 phox) at S345” value (ncf1 (p47 phox)) was “phosphorylated (p47 phox) at S345”.

From patent publication US20260133193A1, “COMPOSITIONS AND METHODS FOR TREATING INFLAMMATORY DISEASES” (University of Washington, priority 2018, published 2026)
